Common to all, as to type: binding
For test [1], the target named is T1, TV560 (cytosolic Hsp90, TVAG_153560) (Trichomonas vaginalis, UniProt A2EPR1).
T1 construct: full-length, 6x-His tag fusion expressed in E. coli (721 amino acids)
Put plainly: intrinsic tryptophan fluorescence quenching; also ATPase kinetics (KM […]).

Test [2] deals with T2, TV910 (Grp94 ortholog, TVAG_378910) (Trichomonas vaginalis, UniProt A2DB82).
T2 construct: 6x-His tag fusion expressed in E. coli
The description is as above.

The target in test [3] is T2, TV910 (Grp94 ortholog, TVAG_378910). The test can be described thus: intrinsic tryptophan fluorescence quenching; also ATPase inhibition (IC50 […]).
For test [4], the target named is T1, TV560 (cytosolic Hsp90, TVAG_153560). The test is described as above.

Usually Kd stands for the free concentration of one partner at which half of the binding sites on the other are occupied at equilibrium, for simple one-to-one binding. The low end stands for tighter binding, the high end for weaker binding.

T1 sequence (A2EPR1 entry or part of it): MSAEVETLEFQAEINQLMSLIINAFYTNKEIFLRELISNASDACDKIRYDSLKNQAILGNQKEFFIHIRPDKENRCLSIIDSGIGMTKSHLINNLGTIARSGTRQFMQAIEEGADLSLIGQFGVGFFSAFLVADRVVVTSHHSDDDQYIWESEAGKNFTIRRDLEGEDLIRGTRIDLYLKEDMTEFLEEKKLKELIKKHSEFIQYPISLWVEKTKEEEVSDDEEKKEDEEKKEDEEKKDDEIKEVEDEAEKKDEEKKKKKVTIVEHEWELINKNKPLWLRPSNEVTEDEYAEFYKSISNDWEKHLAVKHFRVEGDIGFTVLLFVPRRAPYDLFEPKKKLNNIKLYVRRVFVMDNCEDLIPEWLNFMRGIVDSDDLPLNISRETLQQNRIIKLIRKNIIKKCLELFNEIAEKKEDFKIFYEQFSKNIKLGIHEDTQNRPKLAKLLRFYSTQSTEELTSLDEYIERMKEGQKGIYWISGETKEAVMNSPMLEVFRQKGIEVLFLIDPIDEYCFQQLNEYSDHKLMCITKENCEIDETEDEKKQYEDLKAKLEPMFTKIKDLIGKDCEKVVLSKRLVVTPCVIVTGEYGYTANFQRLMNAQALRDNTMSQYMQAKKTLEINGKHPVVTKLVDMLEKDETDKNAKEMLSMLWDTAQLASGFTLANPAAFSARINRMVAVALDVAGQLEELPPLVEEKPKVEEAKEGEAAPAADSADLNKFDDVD
T2 sequence (A2DB82 entry or part of it): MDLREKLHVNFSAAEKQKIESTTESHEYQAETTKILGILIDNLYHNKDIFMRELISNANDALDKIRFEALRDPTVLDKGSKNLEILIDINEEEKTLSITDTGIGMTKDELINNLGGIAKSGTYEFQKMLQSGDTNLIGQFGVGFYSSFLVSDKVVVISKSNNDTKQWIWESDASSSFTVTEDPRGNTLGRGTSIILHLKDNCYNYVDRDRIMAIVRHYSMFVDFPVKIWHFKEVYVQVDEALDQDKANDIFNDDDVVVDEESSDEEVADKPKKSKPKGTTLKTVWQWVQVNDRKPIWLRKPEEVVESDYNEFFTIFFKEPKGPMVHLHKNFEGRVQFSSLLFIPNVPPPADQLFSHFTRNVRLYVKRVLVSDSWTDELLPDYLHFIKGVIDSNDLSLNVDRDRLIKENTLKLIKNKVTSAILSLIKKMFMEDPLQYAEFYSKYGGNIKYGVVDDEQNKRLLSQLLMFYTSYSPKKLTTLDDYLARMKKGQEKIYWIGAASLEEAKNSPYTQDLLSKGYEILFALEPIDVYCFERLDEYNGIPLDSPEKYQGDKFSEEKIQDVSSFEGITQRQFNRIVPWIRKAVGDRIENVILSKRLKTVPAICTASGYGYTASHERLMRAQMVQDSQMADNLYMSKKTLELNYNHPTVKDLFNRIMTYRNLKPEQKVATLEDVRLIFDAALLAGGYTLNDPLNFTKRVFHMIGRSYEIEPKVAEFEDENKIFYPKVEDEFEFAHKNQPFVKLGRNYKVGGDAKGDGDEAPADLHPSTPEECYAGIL

Consider `Nc1ncnc2c1ncn2[C@@H]1O[C@H](COP(=O)(O)OP(=O)(O)OP(=O)(O)O)[C@@H](O)[C@H]1O` [ATP], for which the values for the Kd in test [1] and in test [2] were 538 µM and 722 µM, respectively.

Take `C=CCNC1=C2C[C@@H](C)C[C@H](OC)[C@H](O)[C@@H](C)/C=C(\C)[C@H](OC(N)=O)[C@@H](OC)/C=C\C=C(/C)C(=O)NC(=CC1=O)C2=O` [17-AAG]: the Kd amounted to 15.7 µM in test [3] and 11.5 µM in test [4].

Source of the values: publication PMC5973626, “A secreted Heat shock protein 90 of Trichomonas vaginalis” (PLoS Neglected Tropical Diseases, 2018).
